From patent US9718804B2, “GSK-3 inhibitors” (BRISTOL-MYERS SQUIBB COMPANY, priority 2013, dated 2017)
Where two headings read alike, the source gives them in different places.

Tests used:
pTau = pTau assay (no method described); format: cell-based
GSK3α = GSK3α (Homo sapiens, UniProt P49840); assay: GSK3α kinase assay (Caliper LabChip, fluoresceinated peptide substrate); format: biochemical
Outline: (§1)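 IC50 values were derived by non-linear regression from eleven-point dose series. Each reaction was held at room temperature for 20 hours and quenched with EDTA.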

GSK3β = GSK3β (Homo sapiens, UniProt P49841); assay: GSK3β kinase assay (Caliper LabChip, fluoresceinated peptide substrate); format: biochemical
Outline: as §1

[1] = first value of the cell, 250 pM enzyme, 20 uM ATP, 20 hours at room temperature, read-out: GSK3β/α (nM): GSK3β IC50
[2] = second value of the cell, 250 pM enzyme, 20 uM ATP, 20 hours at room temperature, read-out: GSK3β/α (nM): GSK3α IC50

Chain of GSK3α (P49840 whole entry, species assumed): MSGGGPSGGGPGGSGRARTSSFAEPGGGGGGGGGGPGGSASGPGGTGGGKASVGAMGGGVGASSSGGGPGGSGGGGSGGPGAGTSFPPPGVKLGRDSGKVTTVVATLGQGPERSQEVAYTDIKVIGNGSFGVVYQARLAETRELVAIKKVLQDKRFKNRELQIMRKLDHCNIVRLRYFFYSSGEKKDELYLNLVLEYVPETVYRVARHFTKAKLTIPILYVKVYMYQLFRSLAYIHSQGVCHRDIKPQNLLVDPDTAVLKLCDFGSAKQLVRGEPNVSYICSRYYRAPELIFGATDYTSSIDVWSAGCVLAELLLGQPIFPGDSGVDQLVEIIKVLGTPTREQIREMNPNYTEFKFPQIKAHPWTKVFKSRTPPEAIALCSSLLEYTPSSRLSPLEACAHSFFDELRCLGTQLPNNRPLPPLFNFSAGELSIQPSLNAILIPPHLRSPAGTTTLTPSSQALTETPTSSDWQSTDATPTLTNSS
Chain of GSK3β (P49841 whole entry, species assumed): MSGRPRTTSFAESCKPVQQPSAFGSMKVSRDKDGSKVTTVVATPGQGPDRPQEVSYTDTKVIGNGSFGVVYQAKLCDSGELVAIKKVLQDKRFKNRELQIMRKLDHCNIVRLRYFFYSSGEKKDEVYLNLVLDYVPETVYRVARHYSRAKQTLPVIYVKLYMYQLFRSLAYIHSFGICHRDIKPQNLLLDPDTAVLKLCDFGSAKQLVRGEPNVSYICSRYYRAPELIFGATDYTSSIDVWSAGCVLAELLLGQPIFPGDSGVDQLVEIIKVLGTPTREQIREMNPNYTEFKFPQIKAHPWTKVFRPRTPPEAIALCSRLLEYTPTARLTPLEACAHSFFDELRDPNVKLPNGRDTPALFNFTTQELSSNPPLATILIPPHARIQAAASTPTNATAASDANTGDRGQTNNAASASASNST

O=C(Nc1cncc(-c2ccccc2)c1)c1ccnc(Nc2cccc(C(F)(F)F)n2)c1 [Example 144, N-(5-Phenylpyridin-3-yl)-2-((6-(trifluoromethyl)pyridin-2-yl)amino)isonicotinamide]
IC50 (pTau): 910 nM
IC50 (GSK3α): 39 nM
IC50 (GSK3β; [1]): 10 nM

CC(O)c1c(NC(=O)c2ccnc(Nc3ccc(C(F)(F)F)cn3)c2)cnn1C (stereo not drawn) [Example 208, N-(5-(1-Hydroxyethyl)-1-methyl-1H-pyrazol-4-yl)-2-((5-(trifluoromethyl)pyridin-2-yl)amino)isonicotinamide]
IC50 (pTau): 120 nM
IC50 (GSK3α): 3.6 nM
IC50 (GSK3β; [1]): 3 nM

O=C(Nc1cnccc1OCC(F)(F)F)c1ccnc(Nc2ccc(Cl)cn2)c1 [Example 31, 2-((5-Chloropyridin-2-yl)amino)-N-(4-(2,2,2-trifluoroethoxy)pyridin-3-yl)isonicotinamide]
IC50 (pTau): 22 nM
IC50 (GSK3α): 0.3 nM
IC50 (GSK3β; [1]): 0.74 nM

O=C(Nc1cnc(Cl)cc1C1(C2CC2)OCCO1)c1ccnc(Nc2ccc(C(F)(F)F)cn2)c1 [Example 87, N-(6-Chloro-4-(2-cyclopropyl-1,3-dioxolan-2-yl)pyridin-3-yl)-2-((5-(trifluoromethyl)pyridin-2-yl)amino)isonicotinamide]
IC50 (pTau): 6.6 nM
IC50 (GSK3α): 0.17 nM
IC50 (GSK3β; [1]): 0.04 nM

O=C(Nc1cnccc1-c1ccccc1)c1ccnc(Nc2ccc(F)cn2)c1 [Example 8, 2-((5-Fluoropyridin-2-yl)amino)-N-(4-phenylpyridin-3-yl)isonicotinamide]
IC50 (pTau): 132 nM
IC50 (GSK3α): 1.9 nM
IC50 (GSK3β; [1]): 4.1 nM

Cc1ccc(Nc2cc(C(=O)Nc3cnccc3-c3ccccc3)ccn2)nc1 [Example 5, 2-((5-Methylpyridin-2-yl)amino)-N-(4-phenylpyridin-3-yl)isonicotinamide]
IC50 (pTau): 183 nM
IC50 (GSK3α): 4.8 nM
IC50 (GSK3β; [1]): 0.77 nM

O=C(Nc1cncc(-c2cccc(F)c2F)c1)c1ccnc(Nc2ccc(C(F)(F)F)cn2)c1 [Example 130, N-(5-(2,3-Difluorophenyl)pyridin-3-yl)-2-((5-(trifluoromethyl)pyridin-2-yl)amino)isonicotinamide]
IC50 (pTau): 2600 nM
IC50 (GSK3α): 20 nM
IC50 (GSK3β; [1]): 42 nM

O=C(Nc1cnccc1C1=CCCCO1)c1ccnc(Nc2ccc(C(F)(F)F)cn2)c1 [Example 39, N-(4-(3,4-Dihydro-2H-pyran-6-yl)pyridin-3-yl)-2-((5-(trifluoromethyl)pyridin-2-yl)amino)isonicotinamide]
IC50 (pTau): 140 nM
IC50 (GSK3α): 0.93 nM
IC50 (GSK3β; [1]): 1.2 nM

O=C(Nc1cnccc1-c1ccc(F)cc1C(F)(F)F)c1ccnc(Nc2ccc(C(F)(F)F)cn2)c1 [Example 53, N-(4-(2-Trifluoromethyl-4-fluoro-phenyl)pyridin-3-yl)-2-((5-(trifluoromethyl)pyridin-2-yl)amino)isonicotinamide]
IC50 (pTau): 8.3 nM
IC50 (GSK3α): 0.57 nM
IC50 (GSK3β; [1]): 0.51 nM

O=C(Nc1cnc(F)cc1OCC(F)F)c1ccnc(Nc2ccc(F)cn2)c1 [Example 114, N-(4-(2,2-Difluoroethoxy)-6-fluoropyridin-3-yl)-2-((5-fluoropyridin-2-yl)amino)isonicotinamide]
IC50 (pTau): 220 nM
IC50 (GSK3α): 1.5 nM
IC50 (GSK3β; [1]): 4.4 nM

CCC1(c2cc(Cl)ncc2NC(=O)c2ccnc(Nc3ccc(F)cn3)c2)OCCO1 [Example 113, N-(6-Chloro-4-(2-ethyl-1,3-dioxolan-2-yl)pyridin-3-yl)-2-((5-fluoropyridin-2-yl)amino)isonicotinamide]
IC50 (pTau): 14 nM
IC50 (GSK3α): 0.04 nM
IC50 (GSK3β; [1]): 1.7 nM

CC(C)(C)C(O)c1cc(Cl)ncc1NC(=O)c1ccnc(Nc2ccc(C(F)(F)F)cn2)c1 (stereo not drawn) [Example 104, N-(6-Chloro-4-(1-hydroxy-2,2-dimethylpropyl)pyridin-3-yl)-2-((5-(trifluoromethyl)pyridin-2-yl)amino)isonicotinamide]
IC50 (pTau): 280 nM
IC50 (GSK3α): 9.9 nM
IC50 (GSK3β; [1]): 18 nM

O=C(Nc1cnccc1C1=CCCCC1)c1ccnc(Nc2ccc(C(F)(F)F)cn2)c1 [Example 36, N-(4-(Cyclohex-1-en-1-yl)pyridin-3-yl)-2-((5-(trifluoromethyl)pyridin-2-yl)amino)isonicotinamide]
IC50 (pTau): 130 nM
IC50 (GSK3α): 1.4 nM
IC50 (GSK3β; [1]): 2.9 nM

O=C(Nc1ccnnc1)c1ccnc(Nc2ccc(C(F)(F)F)cn2)c1 [Example 196, N-(Pyridazin-4-yl)-2-((5-(trifluoromethyl)pyridin-2-yl)amino)isonicotinamide]
IC50 (pTau): 7400 nM
IC50 (GSK3α): 25 nM
IC50 (GSK3β; [1]): 80 nM

Cc1cc(C(O)C2CC2)c(NC(=O)c2ccnc(Nc3ccc(C(F)(F)F)cn3)c2)cn1 (stereo not drawn) [Example 106, N-(4-(Cyclopropyl(hydroxy)methyl)-6-methylpyridin-3-yl)-2-((5-(trifluoromethyl)pyridin-2-yl)amino)isonicotinamide]
IC50 (pTau): 22 nM
IC50 (GSK3α): 0.49 nM
IC50 (GSK3β; [1]): 0.25 nM

CC1(c2cnncc2NC(=O)c2ccnc(Nc3ccc(C(F)(F)F)cn3)c2)OCCO1 [Example 200, N-(5-(2-Methyl-1,3-dioxolan-2-yl)pyridazin-4-yl)-2-((5-(trifluoromethyl)pyridin-2-yl)amino)isonicotinamide]
IC50 (pTau): 3.2 nM
IC50 (GSK3α): 0.39 nM
IC50 (GSK3β; [1]): 0.62 nM

O=C(Nc1cncnc1OCC(F)(F)F)c1ccnc(Nc2ccc(C(F)(F)F)cn2)c1 [Example 194, N-(4-(2,2,2-Trifluoroethoxy)pyrimidin-5-yl)-2-((5-(trifluoromethyl)pyridin-2-yl)amino)isonicotinamide]
IC50 (pTau): 140 nM
IC50 (GSK3α): 1.6 nM
IC50 (GSK3β; [1]): 3.2 nM

CC(O)(c1cc(Cl)ncc1NC(=O)c1ccnc(Nc2ccc(C(F)(F)F)cn2)c1)C1CC1 (stereo not drawn) [Example 98, N-(6-Chloro-4-(1-cyclopropyl-1-hydroxyethyl)pyridin-3-yl)-2-((5-(trifluoromethyl)pyridin-2-yl)amino)isonicotinamide]
IC50 (pTau): 230 nM
IC50 (GSK3α): 4 nM
IC50 (GSK3β; [1]): 3.7 nM

O=C(Nc1cnc(F)cc1C1(C2CC2)OCCO1)c1ccnc(Nc2ccc(C(F)(F)F)cn2)c1 [Example 94, N-(4-(2-Cyclopropyl-1,3-dioxolan-2-yl)-6-fluoropyridin-3-yl)-2-((5-(trifluoromethyl)pyridin-2-yl)amino)isonicotinamide]
IC50 (pTau): 1.2 nM
IC50 (GSK3α): 0.03 nM
IC50 (GSK3β; [1]): 0.06 nM

C[C@H]1COCCN1c1ccncc1NC(=O)c1ccnc(Nc2ccc(C(F)(F)F)cn2)c1 [Example 20, (S)—N-(4-(3-Methylmorpholino)pyridin-3-yl)-2-((5-(trifluoromethyl)pyridin-2-yl)amino)isonicotinamide]
IC50 (pTau): 0.66 nM
IC50 (GSK3α): 0.09 nM
IC50 (GSK3β; [1]): 0.1 nM

Cc1ccncc1NC(=O)c1ccnc(Nc2ccc(C#N)cn2)c1 [Example 26, 2-((5-Cyanopyridin-2-yl)amino)-N-(4-methylpyridin-3-yl)isonicotinamide]
IC50 (pTau): 670 nM
IC50 (GSK3α; [2]): 8.2 nM
IC50 (GSK3β): 14 nM

O=C(Nc1cnccc1C1CCOCC1)c1ccnc(Nc2ccc(C(F)(F)F)cn2)c1 [Example 35, N-(4-(Tetrahydro-2H-pyran-4-yl)pyridin-3-yl)-2-((5-(trifluoromethyl)pyridin-2-yl)amino)isonicotinamide]
IC50 (pTau): 760 nM
IC50 (GSK3α; [2]): 8.7 nM
IC50 (GSK3β): 16 nM

Cc1ccnc(Nc2cc(C(=O)Nc3cncc(-c4ccccc4F)c3)ccn2)c1 [Example 132, N-(5-(2-Fluorophenyl)pyridin-3-yl)-2-((4-methylpyridin-2-yl)amino)isonicotinamide]
IC50 (pTau): 1900 nM
IC50 (GSK3α): 6.2 nM
IC50 (GSK3β): 9 nM

CCOc1ccncc1NC(=O)c1ccnc(Nc2ccccn2)c1 [Example 11, N-(4-Ethoxypyridin-3-yl)-2-(pyridin-2-ylamino)isonicotinamide]
IC50 (pTau): 294 nM
IC50 (GSK3α): 2.8 nM
IC50 (GSK3β; [1]): 8.9 nM

N#Cc1ccc(Nc2cc(C(=O)Nc3cnccc3-c3ccccc3)ccn2)nc1 [Example 10, 2-((5-Cyanopyridin-2-yl)amino)-N-(4-phenylpyridin-3-yl)isonicotinamide]
IC50 (pTau): 27 nM
IC50 (GSK3α): 0.58 nM
IC50 (GSK3β; [1]): 0.98 nM

O=C(Nc1cnc(Cl)cc1C1(c2ccccc2)OCCO1)c1ccnc(Nc2ccc(C(F)(F)F)cn2)c1 [Example 95, N-(6-Chloro-4-(2-phenyl-1,3-dioxolan-2-yl)pyridin-3-yl)-2-((5-(trifluoromethyl)pyridin-2-yl)amino)isonicotinamide]
IC50 (pTau): 910 nM
IC50 (GSK3α): 5.5 nM
IC50 (GSK3β; [1]): 10 nM

Cc1ccc(Nc2cc(C(=O)Nc3cncc(-c4ccccc4F)c3)ccn2)nc1 [Example 133, N-(5-(2-Fluorophenyl)pyridin-3-yl)-2-((5-methylpyridin-2-yl)amino)isonicotinamide]
IC50 (pTau): 1400 nM
IC50 (GSK3α): 3.4 nM
IC50 (GSK3β; [1]): 7.3 nM

O=C(Nc1cnccc1[S+]([O-])c1ccccc1)c1ccnc(Nc2ccc(C(F)(F)F)cn2)c1 (stereo not drawn) [Example 177, N-(4-(Phenylsulfinyl)pyridin-3-yl)-2-((5-(trifluoromethyl)pyridin-2-yl)amino)isonicotinamide]
IC50 (pTau): 760 nM
IC50 (GSK3α): 1.1 nM
IC50 (GSK3β; [1]): 3.9 nM

CC(O)(c1cnncc1NC(=O)c1ccnc(Nc2ccc(C(F)(F)F)cn2)c1)C1CC1 (stereo not drawn) [Example 203, N-(5-(1-Cyclopropyl-1-hydroxyethyl)pyridazin-4-yl)-2-((5-(trifluoromethyl)pyridin-2-yl)amino)isonicotinamide]
IC50 (pTau): 10000 nM
IC50 (GSK3α): 0.94 nM
IC50 (GSK3β; [1]): 1.2 nM

Cc1cc(C(C)(O)C2CC2)c(NC(=O)c2ccnc(Nc3ccc(C(F)(F)F)cn3)c2)cn1 (stereo not drawn) [Example 107, N-(4-(1-Cyclopropyl-1-hydroxyethyl)-6-methylpyridin-3-yl)-2-((5-(trifluoromethyl)pyridin-2-yl)amino)isonicotinamide]
IC50 (pTau): 94 nM
IC50 (GSK3α): 0.75 nM
IC50 (GSK3β; [1]): 0.92 nM
